Blank lines part the entries; values can stand above or below the compound they belong to.
How the values were obtained:
[1] = biological target: T1, Prostaglandin D2 receptor 2 (Homo sapiens, UniProt Q9Y5Y4); experiment: Antagonist activity at CRTh2 receptor in human isolated eosinophil assessed as inhibition of DK-PGD2-induced shape change after 5 mins by flow cytometry
T1 sequence (Q9Y5Y4 whole entry): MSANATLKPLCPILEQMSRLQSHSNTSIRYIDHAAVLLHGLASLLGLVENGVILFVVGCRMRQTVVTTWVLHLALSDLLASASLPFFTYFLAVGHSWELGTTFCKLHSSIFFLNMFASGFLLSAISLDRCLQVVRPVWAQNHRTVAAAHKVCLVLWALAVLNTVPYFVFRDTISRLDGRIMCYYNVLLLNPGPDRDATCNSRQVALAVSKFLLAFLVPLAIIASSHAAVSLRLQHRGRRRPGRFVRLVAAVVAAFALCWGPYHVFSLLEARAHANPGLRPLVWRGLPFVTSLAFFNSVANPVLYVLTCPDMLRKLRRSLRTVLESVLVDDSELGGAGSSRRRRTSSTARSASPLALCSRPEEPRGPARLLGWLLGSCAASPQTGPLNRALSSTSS

[2] = Antagonist activity at CRTh2 receptor in human isolated eosinophil assessed as inhibition of DK-PGD2-induced shape change after 5 mins by flow cytometry
[3] = Antagonist activity at CRTh2 receptor in human whole blood assessed as inhibition of PGD2-induced eosinophil shape change after 5 mins by flow cytometry
[4] = Antagonist activity at CRTh2 receptor in human isolated eosinophil assessed as inhibition of eotaxin-induced shape change after 5 mins by flow cytometry
[5] = Antagonist activity at CRTh2 receptor in human isolated eosinophil assessed as inhibition of delta12-PGD2-induced shape change after 5 mins by flow cytometry
[6] = Antagonist activity at CRTh2 receptor in human isolated eosinophil assessed as inhibition of 11-Dehydro-TXB2-induced shape change after 5 mins by flow cytometry

IC50 [1]: 24 nM
SMILES: Cc1c(CC(=O)O)c2cccnc2n1Cc1ccc([N+](=O)[O-])cc1

IC50 [2]: 51 nM
SMILES: Cc1c(CC(=O)O)c2cccnc2n1Cc1ccc([S+](C)[O-])cc1 (configuration not stated)

IC50 [3]: 102 nM
IC50 [4]: > 10000 nM
IC50 [5]: 4 nM
IC50 [6]: 4 nM
SMILES: Cc1c(CC(=O)O)c2cccnc2n1Cc1ccc(S(C)(=O)=O)cc1

IC50 [2]: 23 nM
SMILES: Cc1c(CC(=O)O)c2cccnc2n1Cc1ccc(Cl)cc1

From BindingDB's records for doi:10.1016/j.bmc.2013.08.025 (Novartis Institutes For Biomedical Research, 2013)
